# Values of other authors as cited in PubChem BioAssay AID1259409 (Chemical Carcinogenesis Research Information System (CCRIS), 2018).
# System: rodent chemically induced tumor inhibition, incidence and multiplicity
# Assay: CCRIS tumor inhibitor studies
# Details: Dose [Inhibitor]: 0, Route [Inhibitor]: ORAL
structure (smiles),measurement,setting,value
Oc1cccc(O)c1,"tumour outcome (control, treated, inhibition, significance)","Carcinogen: N-BIS(2-HYDROXYPROPYL)NITROSAMINE, 53609-64-6, 0.8% IN DIET FOR 30 WK BEGINNING POST CARCINOGEN TREATMENT (STUDY DURATION: 32 WK), Species: RAT, Strain/Sex: F344/MALE, Target Tissue: Type of Lesion: LUNG: ADENOMA, Dose [Carcinogen]: 0.1% IN DRINKING WATER FOR 2 WK, Promoter: NONE USED","100%, 90%, 10%, not calculated"
same,"tumour outcome (control, treated, inhibition, significance)","Carcinogen: N-BIS(2-HYDROXYPROPYL)NITROSAMINE, 53609-64-6, 0.8% IN DIET FOR 30 WK BEGINNING POST CARCINOGEN TREATMENT (STUDY DURATION: 32 WK), Species: RAT, Strain/Sex: F344/MALE, Target Tissue: Type of Lesion: THYROID: ADENOMA, Dose [Carcinogen]: 0.1% IN DRINKING WATER FOR 2 WK, Promoter: NONE USED","20%, 30%, -50%, not calculated"
same,"tumour outcome (control, treated, inhibition, significance)","Carcinogen: N-BIS(2-HYDROXYPROPYL)NITROSAMINE, 53609-64-6, 0.8% IN DIET FOR 30 WK BEGINNING POST CARCINOGEN TREATMENT (STUDY DURATION: 32 WK), Species: RAT, Strain/Sex: F344/MALE, Target Tissue: Type of Lesion: THYROID: CARCINOMA, Dose [Carcinogen]: 0.1% IN DRINKING WATER FOR 2 WK, Promoter: NONE USED","20%, 25%, -25%, not calculated"
same,"tumour outcome (control, treated, inhibition, significance)","Carcinogen: N-ETHYL-N-HYDROXYETHYLNITROSAMINE, 13147-25-6, 0.8% IN DIET FOR 36 WK BEGINNING 1 WK POST CARCINOGEN TREATMENT (STUDY DURATION: 40 WK), Species: RAT, Strain/Sex: WISTAR/MALE, Target Tissue: Type of Lesion: KIDNEY: MICROADENOMA, Dose [Carcinogen]: 0.1% IN DRINKING WATER FOR 3 WK, Promoter: NONE USED","11/17 (65%), 12/16 (75%), -15%, not significant"
same,"tumour outcome (control, treated, inhibition, significance)","Carcinogen: N-ETHYL-N-HYDROXYETHYLNITROSAMINE, 13147-25-6, 0.8% IN DIET FOR 36 WK BEGINNING 1 WK POST CARCINOGEN TREATMENT (STUDY DURATION: 40 WK), Species: RAT, Strain/Sex: WISTAR/MALE, Target Tissue: Type of Lesion: KIDNEY: RENAL CELL TUMOR, Dose [Carcinogen]: 0.1% IN DRINKING WATER FOR 3 WK, Promoter: NONE USED","14/17 (82%), 13/16 (81%), 1%, not significant"
same,"tumour outcome (control, treated, inhibition, significance)","Carcinogen: N-ETHYL-N-HYDROXYETHYLNITROSAMINE, 13147-25-6, 0.8% IN DIET FOR 36 WK BEGINNING 1 WK POST CARCINOGEN TREATMENT (STUDY DURATION: 40 WK), Species: RAT, Strain/Sex: WISTAR/MALE, Target Tissue: Type of Lesion: LIVER: HEPATOCELLULAR ADENOMA, Dose [Carcinogen]: 0.1% IN DRINKING WATER FOR 3 WK, Promoter: NONE USED","10/17 (59%), 7/16 (44%), 25%, not significant"
same,"tumour outcome (control, treated, inhibition, significance)","Carcinogen: N-ETHYL-N-HYDROXYETHYLNITROSAMINE, 13147-25-6, 0.8% IN DIET FOR 36 WK BEGINNING 1 WK POST CARCINOGEN TREATMENT (STUDY DURATION: 40 WK), Species: RAT, Strain/Sex: WISTAR/MALE, Target Tissue: Type of Lesion: LIVER: HEPATOCELLULAR CARCINOMA, Dose [Carcinogen]: 0.1% IN DRINKING WATER FOR 3 WK, Promoter: NONE USED","7/17 (41%), 3/16 (19%), 54%, not significant"
same,"tumour outcome (control, treated, inhibition, significance)","Carcinogen: N-NITROSOBIS(2-OXOPROPYL)AMINE, 60599-38-4, 1.5% IN DIET FOR 16 WK BEGINNING 2 WK POST CARCINOGEN TREATMENT (STUDY DURATION: 20 WK), Species: HAMSTER, Strain/Sex: SYRIAN/FEMALE, Target Tissue: Type of Lesion: GALL BLADDER: ADENOMA, Dose [Carcinogen]: 70 MG/KG IN SALINE FOLLOWED 2 WK LATER BY SECOND TREATMENT","9/18 (50%), 10/16 (62%), -24%, not calculated"
same,"tumour outcome (control, treated, inhibition, significance)","Carcinogen: N-NITROSOBIS(2-OXOPROPYL)AMINE, 60599-38-4, 1.5% IN DIET FOR 16 WK BEGINNING 2 WK POST CARCINOGEN TREATMENT (STUDY DURATION: 20 WK), Species: HAMSTER, Strain/Sex: SYRIAN/FEMALE, Target Tissue: Type of Lesion: GALL BLADDER: CARCINOMA, Dose [Carcinogen]: 70 MG/KG IN SALINE FOLLOWED 2 WK LATER BY SECOND TREATMENT","1/18 (6%), 1/16 (6%), 0%, not significant"
same,"tumour outcome (control, treated, inhibition, significance)","Carcinogen: N-NITROSOBIS(2-OXOPROPYL)AMINE, 60599-38-4, 1.5% IN DIET FOR 16 WK BEGINNING 2 WK POST CARCINOGEN TREATMENT (STUDY DURATION: 20 WK), Species: HAMSTER, Strain/Sex: SYRIAN/FEMALE, Target Tissue: Type of Lesion: LIVER: CHOLANGIOCARCINOMA, Dose [Carcinogen]: 70 MG/KG IN SALINE FOLLOWED 2 WK LATER BY SECOND TREATMENT","16/18 (89%), 12/16 (75%), 16%, not calculated"
same,"tumour outcome (control, treated, inhibition, significance)","Carcinogen: N-NITROSOBIS(2-OXOPROPYL)AMINE, 60599-38-4, 1.5% IN DIET FOR 16 WK BEGINNING 2 WK POST CARCINOGEN TREATMENT (STUDY DURATION: 20 WK), Species: HAMSTER, Strain/Sex: SYRIAN/FEMALE, Target Tissue: Type of Lesion: LIVER: NEOPLASTIC NODULE, Dose [Carcinogen]: 70 MG/KG IN SALINE FOLLOWED 2 WK LATER BY SECOND TREATMENT","18/18 (100%), 16/16 (100%), 0%, not significant"
same,"tumour outcome (control, treated, inhibition, significance)","Carcinogen: N-NITROSOBIS(2-OXOPROPYL)AMINE, 60599-38-4, 1.5% IN DIET FOR 16 WK BEGINNING 2 WK POST CARCINOGEN TREATMENT (STUDY DURATION: 20 WK), Species: HAMSTER, Strain/Sex: SYRIAN/FEMALE, Target Tissue: Type of Lesion: PANCREAS: ADENOCARCINOMA, Dose [Carcinogen]: 70 MG/KG IN SALINE FOLLOWED 2 WK LATER BY SECOND TREATMENT","14/18 (78%), 10/16 (63%), 19%, not calculated"
